Measurements: patent US20240269139A1, “COMPOUNDS FOR TARGETED PROTEIN DEGRADATION OF KINASES” (DANA-FARBER CANCER INSTITUTE, INC., priority 2020, published 2024)
Several values for one entry are separate records, joined by “and”; a condition that tells them apart may be missing. Equal entries are not always repeated. Where two headings read alike, the source gives them in different places.

How the values were obtained:
Assay type in all cases: cell-based
[1] = target: protein kinases (human kinome) (Homo sapiens, UniProt Q15131); conditions: for logFC: CDK10 (Q15131-1)
Sequence of protein kinases (human kinome) (Homo sapiens, UniProt Q15131) (Q15131 whole entry): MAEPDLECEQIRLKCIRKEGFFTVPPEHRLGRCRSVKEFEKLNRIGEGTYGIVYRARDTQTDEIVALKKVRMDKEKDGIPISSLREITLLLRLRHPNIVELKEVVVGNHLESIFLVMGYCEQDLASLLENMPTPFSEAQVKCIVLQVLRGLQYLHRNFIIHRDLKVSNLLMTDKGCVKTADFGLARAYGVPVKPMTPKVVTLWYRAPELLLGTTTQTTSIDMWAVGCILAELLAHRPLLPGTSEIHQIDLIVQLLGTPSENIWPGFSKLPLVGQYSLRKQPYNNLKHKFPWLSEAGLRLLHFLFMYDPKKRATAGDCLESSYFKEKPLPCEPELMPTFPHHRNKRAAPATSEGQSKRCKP

[2] = target: T1, protein kinases (human kinome) (Homo sapiens, UniProt Q6PHR2); conditions: for logFC ULK3: ULK3 (Q6PHR2-1)
T1 sequence (Q6PHR2 1-472): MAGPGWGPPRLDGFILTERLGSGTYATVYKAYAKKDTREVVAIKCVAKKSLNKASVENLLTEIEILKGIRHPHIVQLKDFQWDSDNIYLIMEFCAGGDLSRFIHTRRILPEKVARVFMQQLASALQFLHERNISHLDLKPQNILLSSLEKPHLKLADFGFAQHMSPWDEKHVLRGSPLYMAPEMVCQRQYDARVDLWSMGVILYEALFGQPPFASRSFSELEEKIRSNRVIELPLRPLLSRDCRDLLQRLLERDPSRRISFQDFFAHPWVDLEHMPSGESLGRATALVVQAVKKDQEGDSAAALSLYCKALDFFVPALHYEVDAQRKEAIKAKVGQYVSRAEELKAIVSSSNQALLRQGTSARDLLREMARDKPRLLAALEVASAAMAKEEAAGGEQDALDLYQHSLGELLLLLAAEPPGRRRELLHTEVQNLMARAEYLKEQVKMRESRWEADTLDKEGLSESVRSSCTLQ

[3] = target: T2, protein kinases (human kinome) (Homo sapiens, UniProt Q13546)
T2 sequence (Q13546 1-671): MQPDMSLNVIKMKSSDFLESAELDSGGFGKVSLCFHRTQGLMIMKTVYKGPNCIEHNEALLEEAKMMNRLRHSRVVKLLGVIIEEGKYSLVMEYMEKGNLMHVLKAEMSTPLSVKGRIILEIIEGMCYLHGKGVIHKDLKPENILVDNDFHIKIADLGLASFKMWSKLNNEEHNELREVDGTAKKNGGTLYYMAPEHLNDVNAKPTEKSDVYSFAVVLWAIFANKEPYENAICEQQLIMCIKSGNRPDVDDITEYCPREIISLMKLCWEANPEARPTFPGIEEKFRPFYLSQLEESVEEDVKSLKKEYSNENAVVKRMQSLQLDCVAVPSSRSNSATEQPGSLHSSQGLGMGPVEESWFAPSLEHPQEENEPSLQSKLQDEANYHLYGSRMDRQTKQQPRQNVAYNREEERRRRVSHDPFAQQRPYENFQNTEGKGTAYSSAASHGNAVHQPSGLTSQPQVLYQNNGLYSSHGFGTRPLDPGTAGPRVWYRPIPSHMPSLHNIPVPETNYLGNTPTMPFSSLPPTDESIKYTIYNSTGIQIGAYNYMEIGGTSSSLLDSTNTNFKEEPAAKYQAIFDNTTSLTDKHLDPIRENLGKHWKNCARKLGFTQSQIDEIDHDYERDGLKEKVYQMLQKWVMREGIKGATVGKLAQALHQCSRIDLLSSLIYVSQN

[4] = target: protein kinases (human kinome) (Homo sapiens, UniProt Q9BYT3); conditions: STK33 (Q9BYT3-1), experiment wp076
Sequence of protein kinases (human kinome) (Homo sapiens, UniProt Q9BYT3) (Q9BYT3 whole entry): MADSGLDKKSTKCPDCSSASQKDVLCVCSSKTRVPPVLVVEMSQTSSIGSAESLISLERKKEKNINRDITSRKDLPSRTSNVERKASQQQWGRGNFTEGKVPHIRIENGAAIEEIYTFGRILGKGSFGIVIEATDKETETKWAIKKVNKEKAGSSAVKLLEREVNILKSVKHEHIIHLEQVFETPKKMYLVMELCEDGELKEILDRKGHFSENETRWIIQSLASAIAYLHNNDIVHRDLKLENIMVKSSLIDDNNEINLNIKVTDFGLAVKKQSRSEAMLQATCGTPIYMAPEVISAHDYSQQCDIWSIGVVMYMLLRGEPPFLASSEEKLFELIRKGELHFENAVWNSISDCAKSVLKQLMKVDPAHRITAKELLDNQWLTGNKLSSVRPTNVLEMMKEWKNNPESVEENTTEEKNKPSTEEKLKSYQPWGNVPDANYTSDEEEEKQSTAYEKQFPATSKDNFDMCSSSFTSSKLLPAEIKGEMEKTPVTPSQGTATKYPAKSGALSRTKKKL

[5] = target: T3, protein kinases (human kinome) (Homo sapiens, UniProt O60285); conditions: NUAK1 (O60285), experiment wp076
T3 sequence (O60285 1-661): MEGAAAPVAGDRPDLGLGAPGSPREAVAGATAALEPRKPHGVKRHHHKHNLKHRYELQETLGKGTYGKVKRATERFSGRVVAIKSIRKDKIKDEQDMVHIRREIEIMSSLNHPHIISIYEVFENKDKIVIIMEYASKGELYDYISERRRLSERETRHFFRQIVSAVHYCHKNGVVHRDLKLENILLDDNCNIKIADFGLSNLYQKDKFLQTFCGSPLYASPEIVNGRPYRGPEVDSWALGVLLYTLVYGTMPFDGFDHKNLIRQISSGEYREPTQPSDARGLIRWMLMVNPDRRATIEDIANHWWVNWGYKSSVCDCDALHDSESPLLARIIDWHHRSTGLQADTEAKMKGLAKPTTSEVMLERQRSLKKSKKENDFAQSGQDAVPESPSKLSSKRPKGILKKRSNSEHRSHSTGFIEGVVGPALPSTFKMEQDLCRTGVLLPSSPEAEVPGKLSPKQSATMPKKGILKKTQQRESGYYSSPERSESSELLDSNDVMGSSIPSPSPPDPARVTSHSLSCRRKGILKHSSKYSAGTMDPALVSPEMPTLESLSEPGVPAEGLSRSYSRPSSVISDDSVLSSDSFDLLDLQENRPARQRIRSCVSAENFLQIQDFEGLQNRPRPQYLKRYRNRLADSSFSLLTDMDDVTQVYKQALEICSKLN

[6] = target: protein kinases (human kinome) (Homo sapiens, UniProt P49674); conditions: CSNK1E P49674
Sequence of protein kinases (human kinome) (Homo sapiens, UniProt P49674) (P49674 whole entry): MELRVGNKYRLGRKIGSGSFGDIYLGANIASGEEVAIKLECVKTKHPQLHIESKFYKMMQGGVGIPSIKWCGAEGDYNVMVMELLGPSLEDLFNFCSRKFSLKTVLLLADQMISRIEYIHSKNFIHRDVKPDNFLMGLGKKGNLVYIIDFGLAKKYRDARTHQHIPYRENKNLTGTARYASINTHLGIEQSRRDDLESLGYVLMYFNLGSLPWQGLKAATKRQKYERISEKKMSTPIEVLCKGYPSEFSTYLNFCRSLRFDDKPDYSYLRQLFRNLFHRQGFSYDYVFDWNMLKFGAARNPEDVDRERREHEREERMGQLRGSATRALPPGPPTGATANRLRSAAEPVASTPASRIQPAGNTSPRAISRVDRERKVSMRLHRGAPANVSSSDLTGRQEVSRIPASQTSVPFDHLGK

## O=C(COc1cccc2c1C(=O)N(C1CCC(=O)NC1=O)C2=O)NCCCCCCCN1CCc2cc(Nc3ncc(C4CC4)c(NCCCNC(=O)C4CCC4)n3)ccc2C1 (stereo not drawn) [BSJ.04.178]
[1]; experiment wp134
  logFC: −0.6546
  logFC of CDK10 (Q15131-1): −0.6546

## CS(=O)(=O)Nc1cccc(-c2csc3cnc(Nc4ccc(N5CCN(CCCCCOc6cccc7c6C(=O)N(C6CCC(=O)NC6=O)C7=O)CC5)cc4)nc23)c1 (stereo not drawn) [DB0614, N-(3-(2-((4-(4-(5-((2-(2,6-Dioxopiperidin-3-yl)-1,3-dioxoisoindolin-4-yl)oxy)pentyl)piperazin-1-yl)phenyl)amino)thieno[3,2-d]pyrimidin-7-yl)phenyl)methanesulfonamide]
[2]; experiment wp045
  logFC ULK3: −0.9461
  logFC ULK3 (Q6PHR2-1): −0.9461
[2]; experiment wp117
  logFC ULK3: −0.8307
  logFC ULK3 (Q6PHR2-1): −0.8307

## Cc1ccc(NC(=O)c2cccc(C(F)(F)F)c2)cc1N1Cc2cnc(Nc3ccc(N4CCN(Cc5cn(CCCCCOc6cccc7c6C(=O)N(C6CCC(=O)NC6=O)C7=O)nn5)CC4)nc3)nc2N(C)C1=O (stereo not drawn) [DB0646, N-(3-(7-((6-(4-((1-(5-((2-(2,6-Dioxopiperidin-3-yl)-1,3-dioxoisoindolin-4-yl)oxy)pentyl)-1H-1,2,3-triazol-4-yl)methyl)piperazin-1-v)pyridin-3-yl)amino)-1-methyl-2-oxo-1,4-dihydropyrimido[4,5-d]pyrimidin-3(2H)-yl)-4-methylphenyl)-3-(trifluoromethyl)benzamide]
[3]; experiment wp045
  logFC RIPK1 (Q13546): −0.7115
[3]; experiment wp103
  logFC RIPK1 (Q13546): −0.4796
[3]; experiment wp105
  logFC RIPK1 (Q13546): −0.4233
[3]; experiment wp107
  logFC RIPK1 (Q13546): −0.5121
[3]; experiment wp117
  logFC RIPK1 (Q13546): −0.616
[3]; experiment wp152
  logFC RIPK1 (Q13546): −0.5495
[3]; experiment wp160, 4 hr
  logFC RIPK1 (Q13546): −0.3907
[3]; experiment wp160, 8 hr
  logFC RIPK1 (Q13546): −0.8745

## Cc1ccc(NC(=O)c2cccc(C(F)(F)F)c2)cc1N1Cc2cnc(Nc3ccc(N4CCN(CCCCC(=O)N[C@H](C(=O)N5C[C@H](O)C[C@H]5C(=O)N[C@@H](C)c5ccc(-c6scnc6C)cc5)C(C)(C)C)CC4)nc3)nc2N(C)C1=O [DB1113]
[3]; experiment wp168
  logFC RIPK1 (Q13546): −1.99

## CNC(=O)c1ccccc1Nc1cc(Nc2ccc(N3CCN(CCOCCOCCNC(=O)CNc4cccc5c4C(=O)N(C4CCC(=O)NC4=O)C5=O)CC3)cc2OC)ncc1C(F)(F)F (stereo not drawn) [MFH.5.103.1]
[1]; experiment wp076
  logFC: −0.6988
  logFC of CDK10 (Q15131-1): −0.6988
[4]
  logFC: −2.784
[4]; direction down
  logFC: −2.784

## CCc1cnn2c(N(Cc3ccc(N)nc3)C(=O)CCOCCOCCOCCNC(=O)CNc3cccc4c3C(=O)N(C3CCC(=O)NC3=O)C4=O)cc(N3CCCC[C@H]3CCO)nc12 (stereo partly drawn) [MFH.5.115.2]
[5]
  logFC: −0.5264
[5]; direction down
  logFC: −0.5264

## O=C1CCC(N2C(=O)c3cccc(NCCCCCCCCN4CCC(NC(=O)c5[nH]ncc5NC(=O)c5c(Cl)cccc5Cl)CC4)c3C2=O)C(=O)N1 (stereo not drawn) [MFH.5.126.1]
[5]
  logFC: −1.649
[5]; direction down
  logFC: −1.649

## CS(=O)(=O)Nc1cccc(-c2csc3cnc(Nc4ccc(N5CCN(CCOCCOCCOc6cccc7c6C(=O)N(C6CCC(=O)NC6=O)C7=O)CC5)cc4)nc23)c1 (stereo not drawn) [RSS0628]
[2]; experiment wp045
  logFC ULK3: −1.086
  logFC ULK3 (Q6PHR2-1): −1.086

## Nc1ncnc2c1c(-c1ccc(Oc3ccccc3)cc1)nn2[C@H]1CC[C@H](N2CCN(CCOCCNC(=O)CNc3cccc4c3C(=O)N(C3CCC(=O)NC3=O)C4=O)CC2)CC1 (stereo partly drawn) [SB1.G.181]
[6]; experiment wp071
  logFC: −1.189
  logFC CSNK1E: −1.189

## Cc1ccc(C(=O)Nc2ccc(CN3CCN(CCCOCCOCCOCCNC(=O)COc4cccc5c4C(=O)N(C4CCC(=O)NC4=O)C5=O)CC3)c(C(F)(F)F)c2)cc1C#Cc1cnc2cccnn12 (stereo not drawn) [SB1.G.187]
[3]; Experiment wp172
  logFC RIPK1 (Q13546): −0.9666 and −0.9656
[3]; experiment wp056
  logFC RIPK1 (Q13546): −1.288
[3]; experiment wp103
  logFC RIPK1 (Q13546): −1.767
[3]; experiment wp105
  logFC RIPK1 (Q13546): −1.141
[3]; experiment wp107
  logFC RIPK1 (Q13546): −1.502

## CC(C)S(=O)(=O)c1ccccc1Nc1nc(Nc2ccc(N3CCN(CCOCCOCCNC(=O)CNc4cccc5c4C(=O)N(C4CCC(=O)NC4=O)C5=O)CC3)cc2)ncc1Cl (stereo not drawn) [TL12.186]
[6]; experiment wp137
  logFC: −0.4411
  logFC CSNK1E: −0.4411
[1]; experiment wp131
  logFC: −0.935
  logFC of CDK10 (Q15131-1): −0.935
[2]; experiment wp131
  logFC ULK3: −1.074
  logFC ULK3 (Q6PHR2-1): −1.074
[2]; experiment wp137
  logFC ULK3: −1.174
  logFC ULK3 (Q6PHR2-1): −1.174

## Cc1ccc(C(=O)Nc2ccc(CN3CCN(CCOCCOCCNC(=O)CNc4cccc5c4C(=O)N(C4CCC(=O)NC4=O)C5=O)CC3)c(C(F)(F)F)c2)cc1C#Cc1cnc2cccnn12 (stereo not drawn) [TL13.150]
[3]; experiment wp081
  logFC RIPK1 (Q13546): −0.667

## Nc1ncc(-c2ccc(S(=O)(=O)N(CCCNC(=O)CCOCCOCCOCCOCCOCCNc3cccc4c3C(=O)N(C3CCC(=O)NC3=O)C4=O)C3CC3)cc2)cc1-c1ccc2c(c1)CCNC2=O (stereo not drawn) [WH.10417.099]
[6]; experiment wp056
  logFC: −1.591
  logFC CSNK1E: −1.591
[6]; experiment wp103
  logFC: −1.306
  logFC CSNK1E: −1.306
[6]; experiment wp105
  logFC: −0.8305
  logFC CSNK1E: −0.8305
[6]; experiment wp107
  logFC: −2.192
  logFC CSNK1E: −2.192
[6]; experiment wp172
  logFC: −1.164
  logFC CSNK1E: −1.164
